pIC50: −log10 of the molar value.
How the values were obtained:
[1] = tested on: U937 cell line (human histiocytic lymphoma cell line); test: U937 cell viability assay (TNF-α + Z-VAD-FMK induced necroptosis); assay type: cell-based; conditions: Homo sapiens, U-937; U937 cells, hTNF-α 0.1 μg/mL + Z-VAD-FMK 50 μM, 20 hours, CellTiter-Glo
Experimental: U937 cell line (human histiocytic lymphoma cell line): purchased from ATCC (American Type Culture Collection) Cell Bank, cultured in a 5% CO2, 37° C. incubator, and RPMI 1640 medium which contains L-glutamine, 1.5 g/L sodium bicarbonate, 2.383 g/L HEPES solution, 0.11 g/L sodium pyruvate and 4.5 g/L glucose, plus 10% fetal bovine serum (FBS) was used. • RPMI 1640 medium: GIBCO, Cat #A10491-01; • Fetal bovine serum (FBS): GIBCO, Cat #10099-141C; • Dimethyl sulfoxide (DMSO): Sigma, Cat #D2650; • Recombinant Human TNF-alpha Protein (hTNF-α): R&D system, Cat #210-TA-100; • Pan-Caspase inhibitor (Z-VAD-FMK): Selleckchem, Cat #S7023; • CellTiter-Glo 2.0 Cell Viability Assay kit: Promega, Cat #G9242; • Microwell plate reader: Envision, Perkin Elmer; • 96-well plate: Corning, Cat #3917.
The U937 cells at the logarithmic phase were taken out, centrifuged to remove the medium, washed with PRMI 1640 medium containing 1% FBS, and diluted with 1% FBS-containing RPMI 1640 medium to 2.5×10^5 cells/ml, inoculated at 70 μL/well into a 96-well plate, i.e., 1.75×10^4 cells/well. The plate was cultured in a 5% CO2, 37° C. cell incubator. After incubating for 1 hour, the test compound was diluted to the corresponding concentrations using DMSO with 3-fold serial dilution, then the corresponding concentration of DMSO diluted solution was diluted into 1% FBS-containing RPMI 1640 medium, and 10 μL/well of the diluted test compound with different concentrations (final concentration of test compound was 1.0, 0.333, 0.111, 0.037, 0.012, 0.004, 0.0014 and 0.0005 μM, while final concentration of DMSO was 0.3%) or 10 μL/well control solution (3% DMSO) were added to the cell culture system respectively, with the total volume being 80 μL/well; Then 10 μL of Z-VAD-FMK solution diluted with 1% FBS-containing RPMI 1640 medium (final concentration of 50 μM) or 10 μL of control solution (2.5% DMSO) was added to each well, with the total volume being 90 μL/well. The plate was incubated in a 5% CO2, 37° C. cell culture incubator for 1 hour.
(§1) After being cultured for 1 hour, 10 μL of human recombinant TNF-α protein diluted with 1% FBS-containing RPMI 1640 medium (final concentration of 0.1 μg/mL) or 10 μL/well control solution (1% FBS-containing RPMI 1640 medium) was added to each well. The plate was incubated in a 5% CO2, 37° C. cell culture incubator for 20 hours.
(§2) The cell culture plate was taken out from the incubator, and left to stand at room temperature for 30 minutes. Meanwhile, CellTiter-Glo viability assay kit was put from freezer to room temperature, and 50 μL of CellTiter-Glo reagent was added to all wells, the plate was shaken for 1 minutes, protected from light at room temperature for 10 minutes then read the plate on Envision to get the luminescence signal.
(§3) The 96-well plate in the dark was taken out, and the chemiluminescence was determined using the Envision microwell plate reader as the signal value of each well.
(§4) The mean signal value of the wells of the mixed solution of recombinant human TNF-alpha protein (final concentration of 0.1 μg/mL) and Pan-Caspase inhibitor (final concentration of 50 μM) was used as the lower value, and the mean signal value of the wells without stimulation was used as the upper value. According to the signal value of each well, the inhibition rate of each concentration of every compound was calculated, and the IC50 value of compound was obtained by Model 205 in XL-Fit 5.3 software (ID Business Solutions Limited).
(§5) Inhibition rate %=[(Luminescence readout of treated compound−Luminescence readout of positive control)/(Luminescence readout of negative control−Luminescence readout of positive control)]×100%, wherein

[2] = target: RIPK1 recombination protein (Homo sapiens (Human), UniProt Q13546); test: RIPK1 kinase activity assay (ADP-Glo); assay type: biochemical; conditions: RIPK1 kinase activity, ADP-Glo, 10 μM ATP
Sequence of RIPK1 recombination protein (Q13546 other isoform, or with tags, fused parts or gaps): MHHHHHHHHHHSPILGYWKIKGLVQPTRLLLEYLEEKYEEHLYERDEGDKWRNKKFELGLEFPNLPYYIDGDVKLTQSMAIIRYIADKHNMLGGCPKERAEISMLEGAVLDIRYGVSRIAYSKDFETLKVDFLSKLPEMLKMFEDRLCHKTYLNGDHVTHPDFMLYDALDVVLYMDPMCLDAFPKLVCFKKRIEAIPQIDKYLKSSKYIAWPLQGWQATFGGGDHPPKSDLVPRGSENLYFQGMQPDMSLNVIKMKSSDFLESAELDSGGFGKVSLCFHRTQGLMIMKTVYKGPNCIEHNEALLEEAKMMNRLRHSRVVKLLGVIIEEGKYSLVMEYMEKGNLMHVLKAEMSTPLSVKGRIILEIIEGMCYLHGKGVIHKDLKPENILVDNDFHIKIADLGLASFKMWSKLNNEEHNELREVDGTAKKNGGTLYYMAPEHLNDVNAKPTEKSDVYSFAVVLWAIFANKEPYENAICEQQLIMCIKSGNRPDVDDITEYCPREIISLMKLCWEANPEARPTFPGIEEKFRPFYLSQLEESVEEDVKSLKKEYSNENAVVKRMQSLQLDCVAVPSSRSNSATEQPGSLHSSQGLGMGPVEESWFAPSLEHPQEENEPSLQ
Experimental: RIPK1 recombination protein: synthesized by Shanghai Medicilon Inc. under the commission by Hutchison MediPharma Limited (50 g of cell pellet was resuspended in 250 mL of lysis buffer (50 mM Tris, pH 7.5, 250 mM NaCl, 1 mM DTT, protease inhibitor 1:50), the cells were ultrasonically lysed using a sonicator (the power set to 4) on ice for 3×30 minutes; then centrifugation was carried out at 4° C., at 15,000 g for 30 minutes to clarify the suspension, the soluble pellet was resuspended into 10 mL of glutathione agarose, and incubated at 4° C. for 2 hours; then the beads were loaded into the column and washed with lysis buffer (no protease inhibitors) to baseline, and eluted with 20 mM of reduced glutathione (50 mM Tris, pH 8). The fractions identified by SDS-PAGE as containing the protein of interest were collected (10 mL of total volume), concentrated to about 5 mL and loaded into 300 mL superdex75 column (GE Healthcare) equilibrated with buffer (50 mM Tris, pH 7.5, 150 mM NaCl, 1 mM DTT, 10% glycerol, pH 7.5). RIP1 protein was eluted as a dimer from the superdex75 column. The protein concentration was determined by the Bradford assay using BSA as the standard. The yield was 12.5 mg at 0.63 mg/mL. The protein was aliquoted and frozen at −80° C. for later use.
ADP-Glo Kinase kit can be used to measure ADP level in kinase activity assay so as to distinguish the inhibitory effects of different compounds on RIPK1 kinase activity. The ADP-Glo assay was usually divided into three steps. Firstly, the kinase converted ATP to ADP and phosphorylated the substrate at the same time; secondly, ATP digestion reagent was added to degrade all ATP in the reaction system; finally, a detection reagent was added to reduce ADP to ATP, and energy from ATP was transferred to […] which thus emitting a chemical luminescence that can be detected. Assay procedure can refer to manufacture's technical manual.
(2) Reagent Preparation: • 1.33× kinase buffer: 5× kinase buffer stock (250 mM of NaCl, 150 mM of MgCl2, 2.5 mg/ml BSA (bovine serum albumin), 0.1% CHAPS (3-[(3-cholamidopropyl)-dimethyl-ammonio]-1-propane sulfonate), and 5 mM of dithiothreitol) was diluted with water to 1.33× kinase buffer; • RIPK1 enzyme solution: the kinase was dissolved in 1.33× kinase buffer to make 40 nM as the final working concentration; • ATP solution: 10 mM ATP stock solution in water was dissolved in 1.33× kinase buffer to make 10 μM as the final working concentration; • 4× compound preparation: the compound was diluted in a 3-fold gradient, and finally 4% DMSO aqueous solution containing different concentrations of the compound was obtained. The final concentrations of the test compound were 10, 3.33, 1.11, 0.37, 0.12, 0.04, 0.014, and 0.005 μM.
The assay set up two control groups, one was 100% inhibition group (no enzyme treatment), another was 0% inhibition group (no inhibitor treatment), each control group contained 8 replicate wells. 2.5 μl of serially diluted compound was added to each well of a 384-well plate, with double replicate wells, and 4% DMSO solution was added to control wells. Then 5 μl of RIPK1 enzyme solution was added to each well except 100% inhibition control, 5 ul of buffer was added to 100% inhibition control, after that, 2.5 μl of ATP solution was added to all wells, the plate was vibrated at 1000 rpm for 30 seconds to perform transient centrifuge; finally the 384-well assay plate was put in the shaking incubator, and incubated at room temperature for 3 hours. After the enzymatic reaction was completed, 5 μl of ATP depletion reagent was added to each well, the mixture was centrifuged transiently, then the 384-well assay plate was put in the shaking incubator, and incubated at room temperature for 1 hour. 5 μl of ADP detection reagent was added to each well, and the mixture was centrifuged transiently, and incubated at room temperature for 0.5 hour. […]

[3] = tested on: L929 cell line (mouse fibroblastoma cell line); test: L929 cell viability assay (mTNF-α + Z-VAD-FMK induced necroptosis); assay type: cell-based; conditions: Mus musculus, L929, 20 h, L929 cells, mTNF-α 0.1 μg/mL + Z-VAD-FMK 5 μM, CellTiter-Glo
Experimental: L929 cell line (mouse fibroblastoma cell line): purchased from ATCC (American Type Culture Collection) Cell Bank, cultured in 5% CO2, 37° C. incubator, and MEM medium which contains L-Glutamine, with 10% FBS was used. • MEM medium: GIBCO, Cat #11095080; • Fetal bovine serum (FBS): GIBCO, Cat #10099-141C; • Dimethyl sulfoxide (DMSO): Sigma, Cat #D2650; • 0.25% Trypsin-EDTA: GIBCO, Cat #25200072; • Recombinant Mouse TNF-alpha Protein (mTNF-α): R&D system, Cat #410-MT-050; • Pan-Caspase inhibitor (Z-VAD-FMK): Selleckchem, Cat #S7023; • CellTiter-Glo 2.0 Cell Viability Assay kit: Promega, Cat #G9242; • Microwell plate reader: Envision, Perkin Elmer; • 96-well plate: Corning, Cat #3917.
The L929 cells at the logarithmic phase were taken out, and the supernatant was discarded. After trypsinization and cell shedding, 10% FBS-containing medium was added for neutralization, and the supernatant was discarded after centrifugation. The cells were re-suspended using 10% FBS-containing medium, adjusted to 7×10^4 cells/ml, added to 96-well microplate at 70 μL/well, i.e., 4.9×10^3 cells/well. Then the plate was incubated in a 5% CO2, 37° C. cell incubator overnight.
After incubating overnight, the 96-well plate was taken out, the medium was discarded, and the plate was washed with 1% FBS-containing MEM medium. Then 1% FBS-containing MEM medium was added at 70 μL/well, and the plate was cultured in a 5% CO2, 37° C. cell incubator. After incubating for 1 hour, the test compound was diluted to the corresponding concentrations using DMSO with 3-fold serial dilution, then the corresponding concentration of DMSO diluted solution was diluted into 1% FBS-containing MEM medium, and 10 μL/well of the diluted test compound with different concentrations (final concentrations of test compound were 10, 3.33, 1.11, 0.37, 0.12, 0.04, 0.014 and 0.005 μM, while final concentration of DMSO was 0.3%) or 10 μL/well control solution (3% DMSO) were added to the cell culture system respectively, with the total volume being 80 μL/well. Then 10 μL of Z-VAD-FMK solution diluted with 1% FBS-containing MEM medium (final concentration of 5 μM) or 10 μL of control solution (2.5% DMSO) was added to each well, with the total volume being 90 μL/well. The plate was incubated in a 5% CO2, 37° C. cell culture incubator for 1 hour.
as §1, with “incubating” for “being cultured”, “of” for “of human”, “recombinant mouse” for “recombinant”, “protein solution” for “protein”, “MEM” for “RPMI 1640”, “μL” for “μL/well”
as §2, §3
as §4, with “recombinant mouse” for “recombinant human”, “of 5” for “of 50”
as §5

Structure (SMILES) | pIC50 [2] | pIC50 [1] | pIC50 [3]
Cn1cncc(-c2ccc(C3(NC(=O)c4nc5n(n4)[C@H](c4ccccc4)CC5)CC3)cc2)c1=O [Compound 53, (S)—N-(1-(4-(1-methyl-6-oxo-1,6-dihydropyrimidin-5-yl)phenyl)cyclopropyl)-5-phenyl-6,7-dihydro-5H-pyrrolo[1,2-b][1,2,4]triazole-2-carboxamide] | 6.92 | 6.26 | 
CC(C)n1ncc2cnc(C(=O)NC3(c4ccc(-c5cncn(C)c5=O)c(C(F)(F)F)c4)CC3)nc21 [Compound 24] | 7.05 | 6.79 | 
CC(C)n1cncc(-c2ccc(C3(NC(=O)c4nnc(Cc5ccccc5)[nH]4)CC3)cc2)c1=O [Compound 14] |  | 8.52 | 6.74

More lines, in order of rising pIC50 [2], values ahead:

pIC50 [2] | Structure (SMILES) | pIC50 [1] | pIC50 [3]
7.28 | Cn1cncc(-c2ccc(C3(NC(=O)c4n[nH]c(Cc5ccccc5)n4)CC3)c(F)c2)c1=O [Compound 48] | 7.41 | 
7.34 | Cc1cc(C2(NC(=O)c3ncc4cnn(C(C)C)c4n3)CC2)ccc1-c1cncn(C)c1=O [Compound 27] | 6.99 | 
7.41 | Cn1c(N)ncc(-c2ccc(C3(NC(=O)c4nnc(Cc5ccccc5)[nH]4)CC3)cc2)c1=O [Compound 7] | 7.17 | 

Reference: patent US20240002388A1, “PYRIMIDINONE COMPOUNDS AND USES THEREOF” (HUTCHISON MEDIPHARMA LIMITED, priority 2020, published 2024)
